In ChEMBL document CHEMBL1201862, “PubChem BioAssay data set” (2004):
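Protocol summary: plate cells (96-well), add compound at 5 concentrations, incubate 48 h, interpolate endpoints linearly. GI50 is the concentration that inhibits growth by half.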 Calls of active or inactive are those of the source. Cut-off read from the data, not from the text of the source: active = GI50 up to about 1.1 µM and inactive = higher.

How the values were obtained:
Assay in all cases: NCI tumour cell line growth inhibition, 48 h
[1] = tested on: CCRF-CEM
[2] = tested on: A549
[3] = tested on: NCI-H23
[4] = tested on: SF-539
[5] = tested on: Malme-3M
[6] = tested on: 786-0
[7] = tested on: HL-60
[8] = tested on: HOP-62
[9] = tested on: KM12
[10] = tested on: SNB-19
[11] = tested on: HOP-92
[12] = tested on: MDA-MB-435
[13] = tested on: HCT-15
[14] = tested on: T47D
[15] = tested on: NCI-H522
[16] = tested on: UACC-62
[17] = tested on: MCF7
[18] = tested on: MOLT-4
[19] = tested on: UACC-257

SMILES	GI50 [1]	GI50 [2]	GI50 [3]	GI50 [4]	GI50 [5]	GI50 [6]	GI50 [7]	GI50 [8]	GI50 [9]	GI50 [10]	GI50 [11]	GI50 [12]	GI50 [13] [µM]	GI50 [14]	GI50 [15]	GI50 [16]	GI50 [17]	GI50 [18]	GI50 [19]
Cc1ccc2c(O)cc(-c3csc4ccccc34)nc2n1	< 0.01 µM (active)	0.0164 µM (active)	0.0274 µM (active)	< 0.01 µM (active)	< 0.01 µM (active)	< 0.01 µM (active)	< 0.01 µM (active)	< 0.0138 µM (active)	< 0.01 µM (active)	< 0.01 µM (active)	0.321 µM (active)	< 0.01 µM (active)	< 0.0151	21.2 µM (inactive)	< 0.01 µM (active)	< 0.0122 µM (active)	0.0131 µM (active)	< 0.01 µM (active)	
CSc1nc(SC)c2c(CN=[N+]=[N-])c(Br)n(Cc3ccccc3)c2n1	72.6 µM (inactive)	> 100 µM (inactive)	> 100 µM (inactive)	32.8 µM (inactive)	> 100 µM (inactive)	> 100 µM (inactive)	62.1 µM (inactive)	92.3 µM (inactive)	> 100 µM (inactive)	> 100 µM (inactive)	15 µM (inactive)	55.7 µM (inactive)	> 100	11.7 µM (inactive)	> 100 µM (inactive)	47.3 µM (inactive)	> 100 µM (inactive)	> 100 µM (inactive)	
Cc1ccc(/C=N/Nc2cc(C)c3cccc(C)c3n2)s1	4.43 µM (inactive)	6.31 µM (inactive)	12.2 µM (inactive)	13.9 µM (inactive)	15.1 µM (inactive)	2.74 µM (inactive)	3.28 µM (inactive)	11.8 µM (inactive)	7.31 µM (inactive)	26.5 µM (inactive)	6.4 µM (inactive)	7.14 µM (inactive)	3.73	4.15 µM (inactive)	2.81 µM (inactive)	17.9 µM (inactive)	4.11 µM (inactive)	3.21 µM (inactive)	18.7 µM (inactive)
Nc1ncnc2c1ccn2CC#CCO	> 100 µM (inactive)	> 100 µM (inactive)	> 100 µM (inactive)	> 100 µM (inactive)	> 100 µM (inactive)	> 100 µM (inactive)	93.8 µM (inactive)	> 100 µM (inactive)	> 100 µM (inactive)	> 100 µM (inactive)	> 100 µM (inactive)	> 100 µM (inactive)	> 100	> 100 µM (inactive)	> 100 µM (inactive)	> 100 µM (inactive)	> 100 µM (inactive)	> 100 µM (inactive)	> 100 µM (inactive)
NCCCCC(N)C(=O)NCCNc1ccc(NCCNC(=O)C(N)CCCCN)c2c1C(=O)c1ccccc1C2=O (configuration not stated)	31.9 µM (inactive)	63 µM (inactive)	> 65.8 µM (inactive)	7.62 µM (inactive)	> 100 µM (inactive)	7.41 µM (inactive)	> 95.5 µM (inactive)	9.46 µM (inactive)	> 81.3 µM (inactive)	> 36.9 µM (inactive)	5.27 µM (inactive)	98.6 µM (inactive)	> 83.8	> 100 µM (inactive)	3.56 µM (inactive)	> 100 µM (inactive)	> 100 µM (inactive)	4.39 µM (inactive)	> 100 µM (inactive)
O=C1c2cc3c(cc2CC12Cc1cc4c(cc1C2=O)CCC4)CCCC3 (configuration not stated)	> 100 µM (inactive)	> 100 µM (inactive)	> 100 µM (inactive)	> 100 µM (inactive)	59.4 µM (inactive)	76 µM (inactive)	> 100 µM (inactive)	> 100 µM (inactive)		> 100 µM (inactive)	> 100 µM (inactive)	> 100 µM (inactive)	> 100	> 100 µM (inactive)	> 100 µM (inactive)		> 100 µM (inactive)	> 100 µM (inactive)	> 100 µM (inactive)
C#CCCOC(=O)CC1=C(C)/C(=C/c2ccc([S+](C)[O-])cc2)c2ccc(F)cc21 (configuration not stated)	15 µM (inactive)		22.2 µM (inactive)	16.2 µM (inactive)		19.8 µM (inactive)	5.79 µM (inactive)	27.2 µM (inactive)	10.8 µM (inactive)	13.6 µM (inactive)	12.6 µM (inactive)	4.67 µM (inactive)	12.9	20.1 µM (inactive)	17.3 µM (inactive)	13.6 µM (inactive)	19.4 µM (inactive)	17.5 µM (inactive)	15.7 µM (inactive)
O=C1C=C/C(=N/c2ccccc2)c2ccccc21	4.29 µM (inactive)	7.38 µM (inactive)	2.62 µM (inactive)	15.1 µM (inactive)		12.3 µM (inactive)	4.89 µM (inactive)	11.2 µM (inactive)	11.4 µM (inactive)	21.8 µM (inactive)	14.9 µM (inactive)	1.84 µM (inactive)	9.42	16.2 µM (inactive)	10.2 µM (inactive)	3.52 µM (inactive)	5.74 µM (inactive)	5.41 µM (inactive)	2.64 µM (inactive)
CCCC(=O)OC1C(CO)OC(n2cc(F)c(=O)[nH]c2=O)C1F (configuration not stated)	3.91 µM (inactive)	> 100 µM (inactive)	> 100 µM (inactive)	1.67 µM (inactive)	42.6 µM (inactive)	38.5 µM (inactive)	80.5 µM (inactive)	4.5 µM (inactive)	> 100 µM (inactive)		> 100 µM (inactive)	59.4 µM (inactive)	> 100	> 100 µM (inactive)	> 100 µM (inactive)	24.1 µM (inactive)	0.604 µM (active)	> 100 µM (inactive)	> 100 µM (inactive)
CN(/N=C\c1ccc2ccccc2c1)C1=NCCCCN1	23.3 µM (inactive)	18.8 µM (inactive)	29.8 µM (inactive)	21.7 µM (inactive)	14.9 µM (inactive)	15.8 µM (inactive)	15.1 µM (inactive)	19.2 µM (inactive)	20.9 µM (inactive)		0.124 µM (active)	18.2 µM (inactive)	30.6	31.6 µM (inactive)	16.7 µM (inactive)	27.2 µM (inactive)	18.2 µM (inactive)	17.6 µM (inactive)	16.4 µM (inactive)
CN(CCCN(C)Cc1ccc(Cl)c(Cl)c1)CCN1CCCC1	7.11 µM (inactive)	19.1 µM (inactive)	26.5 µM (inactive)	16.7 µM (inactive)	15.8 µM (inactive)	13.5 µM (inactive)	23.4 µM (inactive)	26.5 µM (inactive)	30.7 µM (inactive)	22.5 µM (inactive)	4.16 µM (inactive)	3.33 µM (inactive)	29	29.9 µM (inactive)	16 µM (inactive)	1.85 µM (inactive)	18.4 µM (inactive)	6.27 µM (inactive)	2.62 µM (inactive)
O=[N+]([O-])/C(C(Cl)=C(Cl)Cl)=C(\SCc1ccccc1)N1CCCCC1	8.34 µM (inactive)	30.9 µM (inactive)	18 µM (inactive)	21.5 µM (inactive)	12.2 µM (inactive)	15.9 µM (inactive)	9.73 µM (inactive)	38.4 µM (inactive)	28 µM (inactive)	56.2 µM (inactive)	0.0879 µM (active)	16.3 µM (inactive)	19.7	8.43 µM (inactive)	14.7 µM (inactive)	17.9 µM (inactive)	12.6 µM (inactive)	10.7 µM (inactive)	28.4 µM (inactive)
CC(=O)C1=CC=C/C1=N\Nc1ccccc1	2.94 µM (inactive)	15.1 µM (inactive)	9.06 µM (inactive)	2.36 µM (inactive)	14.6 µM (inactive)	4.31 µM (inactive)	0.647 µM (active)	20.8 µM (inactive)	4.38 µM (inactive)	21.1 µM (inactive)	11.7 µM (inactive)	13.1 µM (inactive)	5.14	3.33 µM (inactive)	4.71 µM (inactive)	6.97 µM (inactive)	1.29 µM (inactive)	3.67 µM (inactive)	15.5 µM (inactive)
CC(O)(Cc1ccccc1C#N)Cc1ccccc1C#N		> 100 µM (inactive)		> 100 µM (inactive)	> 100 µM (inactive)	> 100 µM (inactive)	4 µM (inactive)	> 100 µM (inactive)	51.5 µM (inactive)	> 100 µM (inactive)	95.5 µM (inactive)	> 100 µM (inactive)	79.3	37.6 µM (inactive)	> 100 µM (inactive)	59.8 µM (inactive)	> 100 µM (inactive)	28.6 µM (inactive)	89.7 µM (inactive)
CC1C/C(=N\N(C)C)C(C#N)(C#N)C1(C#N)C#N (configuration not stated)	0.91 µM (active)	24.8 µM (inactive)	20.5 µM (inactive)	18.1 µM (inactive)	7.6 µM (inactive)	3.7 µM (inactive)	0.857 µM (active)	18 µM (inactive)	27 µM (inactive)	31.7 µM (inactive)	4.63 µM (inactive)	16.7 µM (inactive)	4.81	10.8 µM (inactive)	1.93 µM (inactive)	13.8 µM (inactive)	16 µM (inactive)	2.63 µM (inactive)	13.2 µM (inactive)
O=c1c(C(c2cc(OCc3ccccc3)cc(OCc3ccccc3)c2)c2c(O)oc3ccccc3c2=O)c(O)oc2ccccc12	2.42 µM (inactive)	7.05 µM (inactive)	4.42 µM (inactive)	5.86 µM (inactive)		8.63 µM (inactive)	2.51 µM (inactive)	10.3 µM (inactive)	4.19 µM (inactive)	3.74 µM (inactive)	2.69 µM (inactive)	4.83 µM (inactive)	3.17	8.55 µM (inactive)	8.61 µM (inactive)	4.02 µM (inactive)	12.3 µM (inactive)	3.91 µM (inactive)	13 µM (inactive)
